In the Deep4Chem optical property database:
Where “and” joins values, the source holds several entries; their conditions need not be identical. Equal values may be shown once. Values belong to the compound of their own block, whether it stands above or below them.

Test: solvent given as SMILES
[1] = in c1cc(-c2cccc(-n3c4ccccc4c4ccccc43)c2)cc(-n2c3ccccc3c3ccccc32)c1

SMILES: NS(=O)(=O)c1ccc(N2N=C(c3ccc(O)cc3)CC2c2ccc([N+](=O)[O-])cc2)cc1 (stereo not given)
fluorescence lifetime (in C1CCOC1): 2.19 ns | fluorescence lifetime (in C1COCCO1): 2.06 ns | fluorescence lifetime (in CC#N): 2.21 ns | fluorescence lifetime (in CC(C)O): 1.42 ns | fluorescence lifetime (in CCO): 1.31 ns | fluorescence lifetime (in CCOC(C)=O): 2.37 ns | fluorescence lifetime (in CN(C)C=O): 2.51 ns | fluorescence lifetime (in CO): 1.4 ns | fluorescence lifetime (in CS(C)=O): 2.43 ns | fluorescence lifetime (in O): 2.94 ns

SMILES: CCN(CC)c1ccc(C=Cc2nc3nc4ccccc4nc3s2)c(OC)c1
fluorescence lifetime (in CCCCCCC(C)O): 0.977 ns | fluorescence lifetime (in CCOC(C)=O): 0.96 ns | fluorescence lifetime (in CO): 0.04 ns | fluorescence lifetime (in CS(C)=O): 0.41 ns | fluorescence lifetime (in Cc1ccccc1): 0.27 ns | fluorescence lifetime (in ClC(Cl)Cl): 0.97 ns | fluorescence lifetime (in ClCCl): 1.29 ns

SMILES: CCCCCCC(CCCCCC)N1C(=O)c2cccc3c(-c4ccc(C#N)cc4)ccc(c23)C1=O
fluorescence lifetime (in CCCCCC): 1.02 ns | fluorescence lifetime (in CCCCCCCCCCCCCC): 0.994 ns | fluorescence lifetime (in CCCCCCCCCCCO): 2.12 ns | fluorescence lifetime (in CCCCO): 2.21 ns | fluorescence lifetime (in CN(C)C=O): 2.15 ns | fluorescence lifetime (in Cc1ccccc1): 1.16 ns | fluorescence lifetime (in ClC(Cl)Cl): 1.34 ns

SMILES: COc1cc(N(c2ccc(C=C(C#N)C#N)c(OC)c2)c2ccc(C=C(C#N)C#N)c(OC)c2)ccc1C=C(C#N)C#N
fluorescence lifetime (in C1COCCO1): 0.65 ns | fluorescence lifetime (in CC#N): 0.14 ns | fluorescence lifetime (in CC(C)=O): 0.17 ns | fluorescence lifetime (in CCOC(C)=O): 0.32 ns | fluorescence lifetime (in CN(C)C=O): 0.06 ns | fluorescence lifetime (in CO): 0.12 ns | fluorescence lifetime (in Cc1ccccc1): 0.03 ns | fluorescence lifetime (in ClC(Cl)Cl): 0.14 ns | fluorescence lifetime (in ClCCl): 0.09 ns

SMILES: COc1ccc(/C=C/C2=[O+][B-](F)(F)OC(/C=C/c3ccc(OC)cc3)=C2c2ccccc2)cc1
fluorescence lifetime (in CC#N): 1.5 ns | fluorescence lifetime (in CC(C)=O): 1.43 ns | fluorescence lifetime (in CCOC(C)=O): 1.18 ns | fluorescence lifetime (in CCOCC): 0.9 ns | fluorescence lifetime (in ClC(Cl)(Cl)Cl): 0.7 ns | fluorescence lifetime (in ClCCl): 1.35 ns

SMILES: CCOC(=O)C1CC(c2c(C#N)c(C)nn2-c2ccccc2)=CN1c1ccc(Br)cc1 (stereo not given)
fluorescence lifetime (in C1CCOC1): 5.02 ns | fluorescence lifetime (in C1COCCO1): 5.29 ns | fluorescence lifetime (in CC#N): 4.91 ns | fluorescence lifetime (in CCCCCCC): 4.54 ns | fluorescence lifetime (in CCO): 3.66 ns | fluorescence lifetime (in O): 4.2 ns | fluorescence lifetime (in OCC(O)CO): 2.17 ns | fluorescence lifetime (in OCCO): 2.8 ns

SMILES: c1ccc(-c2nc(-c3ccccc3)nc(-c3ccc(-n4c5ccc(-n6c7ccccc7c7ccccc76)cc5c5cc(-n6c7ccccc7c7ccccc76)ccc54)cc3)n2)cc1
fluorescence lifetime (in Cc1ccccc1): 6 ns

SMILES: O=C([O-])c1ccc(C2=c3cc4c5c(c3Oc3c2cc2c6c3CCCN6CCC2)CCC[N+]=5CCC4)c(C(=O)[O-])c1
fluorescence lifetime (in CCO): 4.87 ns | fluorescence lifetime (in O): 4.36 ns

SMILES: COc1ccc2ccc([O-])cc2c1
fluorescence lifetime (in O): 4 ns

SMILES: Cc1ccccc1C1=C2C=c3c(oc4ccc(C(C)(C)C)cc34)=[N+]2[B-](F)(F)n2c1cc1c3cc(C(C)(C)C)ccc3oc12
fluorescence lifetime (in C1CCCCC1): 4.11 ns | fluorescence lifetime (in CCOC(C)=O): 4.28 ns | fluorescence lifetime (in CO): 4.21 ns

SMILES: c1cc2c3ccc[n+]4cccc(c5ccc[n+](c1)c25)c34
fluorescence lifetime (in CC#N): 7.4 ns | fluorescence lifetime (in CS(C)=O): 4.4 ns | fluorescence lifetime (in C[N+](=O)[O-]): 6.2 ns | fluorescence lifetime (in O): 6.8 ns

SMILES: Cn1c(-c2ccc(-c3nc(-c4ccccc4)c(-c4ccccc4)n3C)cc2)nc(-c2ccccc2)c1-c1ccccc1
fluorescence lifetime (in CC#N): 1.24 ns and 1.1 ns

SMILES: F[B-]1(F)n2c(-c3cccs3)cc(-c3cccs3)c2N=C2C(c3cccs3)=CC(c3cccs3)=[N+]21
fluorescence lifetime (in C1CCOC1): 1.95 ns | fluorescence lifetime (in CC#N): 2.23 ns | fluorescence lifetime (in CS(C)=O): 2.31 ns | fluorescence lifetime (in Cc1ccccc1): 2.21 ns | fluorescence lifetime (in ClCCl): 2.36 ns

SMILES: c1ccc([B-]2(c3ccccc3)Oc3ccc4ccccc4c3-c3c4ccccc4cc[n+]32)cc1
fluorescence lifetime (in Cc1ccccc1): 9.47 ns

SMILES: COC(=O)C(NC(=O)OC(C)(C)C)c1ccc2oc(-c3cc(OC)ccc3OC)nc2c1 (stereo not given)
fluorescence lifetime (in CC1CCCCC1): 1.93 ns | fluorescence lifetime (in CC#N): 2.03 ns | fluorescence lifetime (in CO): 2.03 ns

SMILES: CN1CCN(c2ccc3c4c(cccc24)C(=O)c2ccccc2-3)CC1
fluorescence lifetime (in C1CCCCC1): 8.9 ns | fluorescence lifetime (in C1CCOC1): 10 ns | fluorescence lifetime (in C1COCCO1): 10.3 ns | fluorescence lifetime (in CC1COC(=O)O1): 8.04 ns | fluorescence lifetime (in CC#N): 9.53 ns | fluorescence lifetime (in CC(C)=O): 8.45 ns | fluorescence lifetime (in CCCCCCCCO): 5.99 ns | fluorescence lifetime (in CCCCCO): 5.38 ns | fluorescence lifetime (in CCCCO): 5.03 ns | fluorescence lifetime (in CCCO): 4.66 ns | fluorescence lifetime (in CCO): 3.77 ns | fluorescence lifetime (in CCOC(C)=O): 9.8 ns | fluorescence lifetime (in CN(C)C=O): 8.27 ns | fluorescence lifetime (in CO): 2.93 ns | fluorescence lifetime (in CS(C)=O): 8.5 ns | fluorescence lifetime (in Cc1ccccc1): 9.37 ns | fluorescence lifetime (in ClC(Cl)Cl): 10.4 ns

SMILES: CC(C)c1cc(C(C)C)c(B2c3cc(-n4c5ccc(C(C)(C)C)cc5c5cc(C(C)(C)C)ccc54)ccc3N(c3ccccc3)c3ccc(-n4c5ccc(C(C)(C)C)cc5c5cc(C(C)(C)C)ccc54)cc32)c(C(C)C)c1
fluorescence lifetime [1]: 15 ns

SMILES: [NH3+]C(Cc1ccc(O)cc1)C(=O)[O-] (stereo not given)
fluorescence lifetime (in O): 3.27 ns

SMILES: CC1=C(c2ccc(N(C)C)cc2)C(C)=[N+]2C1=C(c1c(-c3ccccn3)nc3ccccn13)c1c(C)c(-c3ccc(N(C)C)cc3)c(C)n1[B-]2(F)F
fluorescence lifetime (in ClCCl): 0.2 ns

SMILES: CCC1(CC)c2cc(C#Cc3cccs3)ccc2-c2c1c1c(c3c2C(CC)(CC)c2cc(C#Cc4cccs4)ccc2-3)C(CC)(CC)c2cc(C#Cc3cccs3)ccc2-1
fluorescence lifetime (in C1CCOC1): 1.5 ns

SMILES: COc1ccccc1-c1nc(-c2ccccc2)c2ccccn12
fluorescence lifetime (in CC#N): 7.5 ns

SMILES: C[N+]1=c2ccc3c(c2C(C)(C)CC1)Oc1cc2c(cc1C=3c1ccccc1C(=O)O)C(c1ccccc1C(=O)O)=c1ccc3c(c1O2)C(C)(C)CC[N+]=3C
fluorescence lifetime (in ClC(Cl)Cl): 2.48 ns

SMILES: COc1ccc(-c2csc(/C(C#N)=C/c3c(Cl)cccc3Cl)n2)cc1
fluorescence lifetime (in CC#N): 4.07 ns

SMILES: CCN(CC)c1ccc2c(-c3ccccc3C(=O)O)c3c([o+]c2c1)/C(=C/c1nc(-c2ccccc2)n2ccccc12)CCC3
fluorescence lifetime (in ClCCl): 2.97 ns

SMILES: O=C(c1ccc(-n2c3ccccc3c3ccccc32)cc1)c1ccc(-n2c3ccccc3c3ccccc32)cc1
fluorescence lifetime (in O=P(c1ccccc1)(c1ccccc1)c1ccccc1Oc1ccccc1P(=O)(c1ccccc1)c1ccccc1): 59 ns

SMILES: C(=C\c1nc2ccccc2[nH]1)/c1ccc(/C=C/c2nc3ccccc3[nH]2)cc1
fluorescence lifetime (in C1CCOC1): 1.02 ns | fluorescence lifetime (in CC#N): 1.12 ns | fluorescence lifetime (in CC(C)=O): 1.07 ns | fluorescence lifetime (in CN(C)C=O): 0.997 ns | fluorescence lifetime (in CO): 1.06 ns | fluorescence lifetime (in CS(C)=O): 0.919 ns

SMILES: CC(C)(C)c1ccc2c(c1)sc1[n+]2[B-](F)(F)n2c(c3cccc4cccc2c43)=C1C#N
fluorescence lifetime (in ClCCl): 6 ns

SMILES: CC(C)(C)c1ccc(C2=C(c3ccc(N4c5ccccc5C(C)(C)c5ccccc54)cc3)S(=O)(=O)c3c2sc(-c2ccc(N4c5ccccc5C(C)(C)c5ccccc54)cc2)c3-c2ccc(C(C)(C)C)cc2)cc1
fluorescence lifetime (in C1CCOC1): 1.61 ns

SMILES: CC1(C)OB(c2cc3ccc4cc(B5OC(C)(C)C(C)(C)O5)cc5ccc(c2)c3c45)OC1(C)C
fluorescence lifetime (in Cc1ccccc1): 36 ns

SMILES: CC1(C)C(=O)C=Cc2ccc(N)cc21
fluorescence lifetime (in O): 3.49 ns

SMILES: O=C1NC(=O)c2ccc(N3CCOCC3)c3cccc1c23
fluorescence lifetime (in C1CCOC1): 8.38 ns | fluorescence lifetime (in ClC(Cl)Cl): 8.65 ns | fluorescence lifetime (in ClCCl): 8.38 ns

SMILES: CC1(C)c2ccccc2N(c2ccc(-c3ccc4c(c3)c3cc(-c5ccc(N6c7ccccc7C(C)(C)c7ccccc76)cc5)ccc3c3nc(C#N)c(C#N)nc43)cc2)c2ccccc21
fluorescence lifetime (in O=P(c1ccccc1)(c1ccccc1)c1cccc(-c2cc(-n3c4ccccc4c4ccccc43)cc(-n3c4ccccc4c4ccccc43)c2)n1): 53.6 ns

The remaining lines, values ahead:

fluorescence lifetime (in ClC(Cl)Cl): 1.35 ns
SMILES: CCCCc1cc(-c2cccc(COC)c2)oc1-c1cccc(COC)c1

fluorescence lifetime (in CCO): 18.7 ns
SMILES: Cc1cc2cc3ccccc3cc2cn1

fluorescence lifetime (in CC#N): 1.6 ns
SMILES: COc1ccc(C2=[O+][B-](F)(F)OC(c3ccc4c(c3)Cc3ccccc3-4)=C2)cc1

fluorescence lifetime (in ClCCl): 6.1 ns
SMILES: COC(=O)c1[nH]c(-c2ccc(OC)cc2)c2nnc3ccc(OC)cc3c12

fluorescence lifetime (in C1CCCCC1): 0.7 ns | fluorescence lifetime (in ClC(Cl)Cl): 0.7 ns
SMILES: CN(C)c1ccc(/C=C/c2ccc(-c3nc(C#N)c(C#N)n3C)cc2)cc1

fluorescence lifetime (in ClC(Cl)Cl): 0.8 ns
SMILES: CCCCCCCCCCCCOc1cc2c3c(ccc4c5c(NC6CCCCC6)cc6c7c(ccc(c1c34)c75)C(=O)N(C1CCCCC1)C6=O)C(=O)N(C1CCCCC1)C2=O

fluorescence lifetime (in C1CCCCC1): 8.01 ns
SMILES: c1cc2c3c(c1)OCCCCCCCCOc1cccc(c1-c1c4ccccc4c-3c3ccccc13)OCCCCCCCCO2

fluorescence lifetime (in C1CCOC1): 7.32 ns
SMILES: Nc1ccccc1/C=C/C(F)(F)F

fluorescence lifetime [1]: 35 ns
SMILES: CC1(C)c2ccccc2N(c2ccc(-c3cc(C#N)c(C#N)cc3-c3ccc(N4c5ccccc5C(C)(C)c5ccccc54)cc3)cc2)c2ccccc21

fluorescence lifetime (in ClCCl): 1.1 ns
SMILES: Cc1c(C(=O)c2ccc3c4cccc5cccc(c6cccc2c63)c54)c2ccc3cccc4c5cccc6ccc1c(c65)c2c34

fluorescence lifetime (in Cc1ccccc1-c1cccc(Oc2cc3c4c(c2)Oc2cc(-c5ccccc5C)ccc2B4c2ccc(-c4ccccc4C)cc2O3)c1): 4.1 ns
SMILES: c1ccc(N(c2ccccc2)c2cc3c4c(c2)N(c2ccccc2)c2cc5c(cc2B4c2ccccc2N3c2ccccc2)B2c3ccccc3N(c3ccccc3)c3cc(N(c4ccccc4)c4ccccc4)cc(c32)N5c2ccccc2)cc1

fluorescence lifetime (in C1CCOC1): 3.18 ns
SMILES: COc1cc2c(cc1-c1cccs1)Cc1c3c(c4c(c1-2)-c1cc(OC)c(-c2cccs2)cc1C4)C(=O)N(CCC(C)C)C3=O

fluorescence lifetime (in ClCCl): 0.63 ns
SMILES: COc1ccc(-c2cc3c(s2)c(C)cc(=O)n3C)cc1

fluorescence lifetime (in O): 4.49 ns
SMILES: c1ccc2[nH]ccc2c1

fluorescence lifetime (in ClCCl): 2.5 ns
SMILES: COc1ccc2cc(C#N)c(=N)oc2c1

fluorescence lifetime (in ClCCl): 0.45 ns
SMILES: O=[N+]([O-])c1ccc(O)c(-c2nc3c(c4c2-c2ccccc2CC4)-c2ccccc2CC3)c1

fluorescence lifetime (in ClC(Cl)Cl): 7.5 ns
SMILES: COc1cc(OC)c2c(c1)c1cc3oc(=O)cc(C)c3cc1c1cc(OC)cc(OC)c12

fluorescence lifetime (in ClCCl): 1 ns
SMILES: O=Cc1ccc2c(c1)c1ccccc1n2-c1ccc(-c2ccc(-n3c4ccccc4c4cc(C=O)ccc43)cc2)cc1

fluorescence lifetime (in ClC(Cl)Cl): 0.462 ns
SMILES: CCCCCCN1C(=O)c2cccc3c(-c4sc(-c5ccc6c7c(cccc57)C(=O)N(CCCCCC)C6=O)c5c4OCCO5)ccc(c23)C1=O

fluorescence lifetime (in CCCO): 5.5 ns
SMILES: c1ccc2c(c1)[nH]c1c3ccccc3[nH]c21

fluorescence lifetime (in C1CCCCC1): 18 ns
SMILES: Cc1cccc(-c2cccc(C)c2)c1
